Reference: ChEMBL document CHEMBL4118167, “Discovery of bicyclo[3,3,1]non-2-ene as a novel skeleton for HIF-1 inhibitors” (Bioorg Med Chem, 2018)
Active and inactive are the calls of the source. The rule behind the calls is not given here.

Key:
Type in all cases: cell-based
[1] = target: T1, HIF1A/p300/CREB-binding protein (Homo sapiens, UniProt Q09472+Q16665+Q92793); assay: Inhibition of HIF-1alpha/p300/CBP PPI in human HeLa cells assessed as reduction in HIF-1alpha proteasomal degradation after 12 hrs under hypoxic condition in presence of proteasome inhibitor MG132 by Western blot analysis
HeLa = assay: Cytotoxicity against human HeLa cells at 0.3 to 100 uM
[2] = target: T1, HIF1A/p300/CREB-binding protein; assay: Inhibition of HIF-1alpha/p300/CBP PPI in human HeLa cells assessed as […] of HIF-1alpha accumulation at 3 to 30 uM after 12 hrs under hypoxic condition by Western blot analysis
[3] = target: T1, HIF1A/p300/CREB-binding protein; assay: Inhibition of HIF-1alpha/p300/CBP (unknown origin) transcriptional activity expressed in human HeLa cells expressing HRE-Luc/CMV-Luc after 12 hrs under hypoxic condition by dual luciferase reporter gene assay
[4] = target: T1, HIF1A/p300/CREB-binding protein; assay: Inhibition of HIF-1alpha/p300/CBP PPI in human HeLa cells assessed as HIF-1alpha mRNA levels by measuring HIF-1alpha to beta2-microglobulin ratio at 30 uM after 12 hrs under hypoxic condition by qPCR analysis (reference value: 0.90 +/- 0.23)

| Structure (SMILES) | inhibition [1] | Activity (HeLa) | inhibition [2] | IC50 [3] [µM] | Ratio [4] |
| --- | --- | --- | --- | --- | --- |
| CC(C)CC(=O)OC1=C(C(=O)OCc2ccccc2)C2CCCC(OC(=O)CC(C)C)(C1)C2 (configuration not stated) | Dose-dependent effect | Non-Toxic | inactive | 3 | 1.2 |
| O=C(OCc1ccccc1)C1=C(O)CC2(O)CCCC1C2 (configuration not stated) |  | Non-Toxic |  | > 100 |  |
| CC(C)CCOC(=O)C1=C(O)CC2(O)CCCC1C2 (configuration not stated) |  | Non-Toxic |  | > 100 |  |
| CC(C)CCOC(=O)C1=C(OC(=O)CC(C)C)CC2(OC(=O)CC(C)C)CCCC1C2 (configuration not stated) |  | Non-Toxic |  | 6.3 |  |
| OCc1ccc(-c2nn(Cc3ccccc3)c3ccccc23)o1 |  | Non-Toxic |  |  |  |
